Test results as given in patent publication US20210244735A1, “COMPOSITIONS AND METHODS FOR TREATING MYELOFIBROSIS” (Impact Biomedicines, Inc., priority 2010, published 2021).
Structures can show the parent of a compound that is named as a salt. Where two headings read alike, the source gives them in different places.

System: subjects with MF
Conditions: for discontinuation: adverse event: number of subjects
[1] = at least possibly related, All Subjects (n=59)
[2] = at least possibly related, All Subjects, not transfusion dependent at study entry (n=37)
[3] = at least possibly related, MTD Cohort (n=40)
[4] = at least possibly related, MTD Cohort, not transfusion dependent at study entry (n=24)
[5] = at least possibly related, MTD cohort
[6] = at least possibly related, overall
[7] = number of patients who started at ≥680 mg

## Cc1cnc(Nc2ccc(OCCN3CCCC3)cc2)nc1Nc1cccc(S(=O)(=O)NC(C)(C)C)c1 [TG101348, N-tert-butyl-3-[(5-methyl-2-{[4-(2-pyrrolidin-1-ylethoxy)phenyl]amino}pyrimidin-4-yl)amino]benzenesulfonamide dihydrochloride monohydrate]
59 patients, median follow-up 12 weeks
  patients who discontinued treatment due to toxicity: 7
MF-TG101348-001 and -002
  subjects with serious adverse events considered at least possibly related: 8 subjects
MTD cohort
  Grades 3/4 asymptomatic increase in ALT: 8%
  Grades 3/4 asymptomatic increase in AST: 3%
  Grades 3/4 asymptomatic increase in alkaline phosphatase: 0%
  Grades 3/4 asymptomatic increase in creatinine: 0%
  Grades 3/4 asymptomatic increase in serum lipase: 15%
MTD cohort (n=40)
  subjects who required dose-reduction during the first 6 cycles: 70%
MTD subjects not transfusion dependent at baseline (N=24), transfusion on at least 2 occasions for Hb <10 g/dL
  Anemia: New Transfusion Requirement on Study: 16 (67%) subjects (%)
Phase I, myelofibrosis
  maximum tolerated dose (MTD): 680 mg
All patients, Example 1 data
  Grade 3/4 neutropenia: 14 % of patients
  Grade 3/4 thrombocytopenia: 25 % of patients
All subjects
  Grade 3/4 neutropenia considered related: 10%
  Grade 3/4 thrombocytopenia considered related: 24%
[1]
  Abdominal pain, Severity Grade 1-: 6 (10.2%) subjects (%)
  Abdominal pain, Severity Grade 3-4: 0 subjects (%)
  Alanine aminotransferase increased, Severity Grade 1-: 11 subjects (%)
  Alanine aminotransferase increased, Severity Grade 3-4: 4 (6.8%) subjects (%)
  Anorexia, Severity Grade 1-: 8 (13.6%) subjects (%)
  Anorexia, Severity Grade 3-4: 0 subjects (%)
  Aspartate aminotransferase increased, Severity Grade 1-: 15 subjects (%)
  Aspartate aminotransferase increased, Severity Grade 3-4: 1 (1.7%) subjects (%)
  Blood alkaline phosphatase increased, Severity Grade 1-: 10 subjects (%)
  Blood alkaline phosphatase increased, Severity Grade 3-4: 0 subjects (%)
  Blood creatinine increased, Severity Grade 1-: 14 subjects (%)
  Blood creatinine increased, Severity Grade 3-4: 0 subjects (%)
  Diarrhea, Severity Grade 1-: 32 subjects (%)
  Diarrhea, Severity Grade 3-4: 6 (10.2%) subjects (%)
  Dry skin, Severity Grade 1-: 6 (10.2%) subjects (%)
  Dry skin, Severity Grade 3-4: 0 subjects (%)
  Edema peripheral, Severity Grade 1-: 6 (10.2%) subjects (%)
  Edema peripheral, Severity Grade 3-4: 0 subjects (%)
  Hyperlipasemia, Severity Grade 1-: 10 subjects (%)
  Hyperlipasemia, Severity Grade 3-4: 6 (10.2%) subjects (%)
  Hypocalcemia, Severity Grade 1-: 7 (11.9%) subjects (%)
  Hypocalcemia, Severity Grade 3-4: 1 (1.7%) subjects (%)
  Nausea, Severity Grade 1-: 39 subjects (%)
  Nausea, Severity Grade 3-4: 2 (3.4%) subjects (%)
  Neutropenia, Severity Grade 1-2: 2 (3.4%) subjects (%)
  Neutropenia, Severity Grade 3-4: 6 (10.2%) subjects (%)
  Skin exfoliation, Severity Grade 1-: 8 (13.6%) subjects (%)
  Skin exfoliation, Severity Grade 3-4: 0 subjects (%)
  Thrombocytopenia, Severity Grade 1-2: 10 (17.0%) subjects (%)
  Thrombocytopenia, Severity Grade 3-4: 14 (23.7%) subjects (%)
  Vomiting, Severity Grade 1-: 32 subjects (%)
  Vomiting, Severity Grade 3-4: 2 (3.4%) subjects (%)
[2]
  Anemia, Severity Grade 1-2: 3 (8.1%) subjects (%)
  Anemia, Severity Grade 3-4: 13 (35.1%) subjects (%)
[3]
  Abdominal pain, Severity Grade 1-2: 4 (10.0%) subjects (%)
  Abdominal pain, Severity Grade 3-: 0 subjects (%)
  Alanine aminotransferase increased, Severity Grade 1-2: 9 (22.5%) subjects (%)
  Alanine aminotransferase increased, Severity Grade 3-: 3 (7.5%) subjects (%)
  Anorexia, Severity Grade 1-2: 6 (15.0%) subjects (%)
  Anorexia, Severity Grade 3-: 0 subjects (%)
  Aspartate aminotransferase increased, Severity Grade 1-2: 13 subjects (%)
  Aspartate aminotransferase increased, Severity Grade 3-: 1 (2.5%) subjects (%)
  Blood alkaline phosphatase increased, Severity Grade 1-2: 9 (22.5%) subjects (%)
  Blood alkaline phosphatase increased, Severity Grade 3-: 0 subjects (%)
  Blood creatinine increased, Severity Grade 1-2: 11 subjects (%)
  Blood creatinine increased, Severity Grade 3-: 0 subjects (%)
  Diarrhea, Severity Grade 1-2: 25 subjects (%)
  Diarrhea, Severity Grade 3-: 5 subjects (%)
  Dry skin, Severity Grade 1-2: 6 (15%) subjects (%)
  Dry skin, Severity Grade 3-: 0 subjects (%)
  Edema peripheral, Severity Grade 1-2: 4 (10.0%) subjects (%)
  Edema peripheral, Severity Grade 3-: 0 subjects (%)
  Hyperlipasemia, Severity Grade 1-2: 9 (22.5%) subjects (%)
  Hyperlipasemia, Severity Grade 3-: 6 subjects (%)
  Hypocalcemia, Severity Grade 1-2: 6 (15.0%) subjects (%)
  Hypocalcemia, Severity Grade 3-: 1 (2.5%) subjects (%)
  Nausea, Severity Grade 1-2: 31 subjects (%)
  Nausea, Severity Grade 3-: 2 (5.0%) subjects (%)
  Neutropenia, Severity Grade 1-2: 2 (5.0%) subjects (%)
  Neutropenia, Severity Grade 3-4: 4 (10.0%) subjects (%)
  Skin exfoliation, Severity Grade 1-2: 8 (20.0%) subjects (%)
  Skin exfoliation, Severity Grade 3-: 0 subjects (%)
  Thrombocytopenia, Severity Grade 1-2: 8 (20.0%) subjects (%)
  Thrombocytopenia, Severity Grade 3-4: 11 (27.5%) subjects (%)
  Vomiting, Severity Grade 1-2: 27 subjects (%)
  Vomiting, Severity Grade 3-: 1 (2.5%) subjects (%)
[4]
  Anemia, Severity Grade 1-2: 2 (8.3%) subjects (%)
  Anemia, Severity Grade 3-4: 13 (54.2%) subjects (%)
[5]
  grade 3 diarrhea: 13 % of subjects
  grade 3 nausea: 5 % of subjects
  grade 3 vomiting: 3 % of subjects
[6]
  grade 3 diarrhea: 10 % of subjects
  grade 3 nausea: 3 % of subjects
  grade 3 vomiting: 3 % of subjects
Extension study, 43 subjects, after 24 to 46 weeks on therapy
  subjects discontinued because of adverse events: 3
First 6 cycles of therapy, 59 subjects
  subjects discontinued for treatment-related adverse events: 6
[7]
  diarrhea Gr3: 3
  nausea Gr3: 1
  vomiting Gr3: 1
MTD (initiated at 680 or 800 mg/day), 40 enrolled
  discontinuation: adverse event: 5
Overall, 59 enrolled
  discontinuation: adverse event: 6
Of 37 subjects who were not transfusion dependent at baseline
  Grade 3/4 anemia considered related: 35%
Oral once daily, dose cohorts 30 to 800 mg per day
  maximum tolerated dose (MTD): 680 mg/day
overall
  Grades 3/4 asymptomatic increase in ALT: 7%
  Grades 3/4 asymptomatic increase in AST: 2%
  Grades 3/4 asymptomatic increase in alkaline phosphatase: 0%
